In publication PMC11783601, “Analogue-Sensitive Inhibition of Histone Demethylases Uncovers Member-Specific Function in Ribosomal Protein Synthesis” (Journal of the American Chemical Society, 2025):
Several values for one entry are separate records, joined by “and”; a condition that tells them apart may be missing. Identical values can stand only once.

Target: T1, KDM4A F185A (asKDM4A) in HEK293T cells (Homo sapiens, UniProt O75164, F185A)
T1 construct: we generated the F185A mutation in full-length KDM4A carrying all of the functional domains; host or cells: HEK293T
T1 sequence (O75164 1-1064 F185A): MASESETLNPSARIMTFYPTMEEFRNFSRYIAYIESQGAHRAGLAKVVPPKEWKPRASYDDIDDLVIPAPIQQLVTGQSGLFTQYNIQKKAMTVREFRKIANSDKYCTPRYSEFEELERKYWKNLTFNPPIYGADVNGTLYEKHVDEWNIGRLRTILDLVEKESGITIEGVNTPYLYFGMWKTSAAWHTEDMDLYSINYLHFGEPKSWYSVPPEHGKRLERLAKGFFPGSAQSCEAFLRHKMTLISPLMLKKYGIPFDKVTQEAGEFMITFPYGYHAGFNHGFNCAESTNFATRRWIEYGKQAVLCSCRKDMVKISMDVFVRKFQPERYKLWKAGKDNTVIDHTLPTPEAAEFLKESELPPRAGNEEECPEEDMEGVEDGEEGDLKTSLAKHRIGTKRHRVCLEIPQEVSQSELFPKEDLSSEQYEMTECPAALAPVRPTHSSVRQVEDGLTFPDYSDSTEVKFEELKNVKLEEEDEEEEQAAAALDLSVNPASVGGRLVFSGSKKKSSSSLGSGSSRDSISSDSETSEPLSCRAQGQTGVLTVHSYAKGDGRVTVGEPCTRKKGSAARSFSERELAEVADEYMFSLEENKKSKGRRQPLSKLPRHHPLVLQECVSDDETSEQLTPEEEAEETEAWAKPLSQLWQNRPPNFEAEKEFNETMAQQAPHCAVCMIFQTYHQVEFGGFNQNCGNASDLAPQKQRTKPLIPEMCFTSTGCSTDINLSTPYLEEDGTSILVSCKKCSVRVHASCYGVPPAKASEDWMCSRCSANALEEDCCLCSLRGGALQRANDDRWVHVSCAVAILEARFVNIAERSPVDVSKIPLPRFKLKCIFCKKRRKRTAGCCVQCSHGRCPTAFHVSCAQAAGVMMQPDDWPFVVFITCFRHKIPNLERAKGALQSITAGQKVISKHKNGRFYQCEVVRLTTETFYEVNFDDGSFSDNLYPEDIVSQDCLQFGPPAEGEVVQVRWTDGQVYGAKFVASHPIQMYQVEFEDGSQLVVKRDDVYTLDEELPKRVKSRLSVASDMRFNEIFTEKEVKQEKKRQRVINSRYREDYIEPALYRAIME
Test: Histone extraction, digestion and tandem mass spectrometry (relative abundance of histone modifications)
Type: cell-based
Details: peptide form; samples 6A_1, 6A_2
Procedure: HEK293T cells were transiently transfected with asKDM4A and treated with varying concentrations of 6A or 6B. […] To further confirm the activity of the enzyme–inhibitor pair, we performed tandem mass spectrometry of tryptic histones isolated from HEK293T cells expressing asKDM4A in the presence or absence of 100 μM 6A. […]
22. Histone extraction, digestion and tandem mass spectrometry
HEK 293-T cells (ATCC CRL-1573) were plated into 6-well plates (Corning) in DMEM (Corning) supplemented with 10% FBS (Corning) and 1X Antibiotic/Antimycin
(Penicillin/Streptomycin/Fungiozone) (Cytiva HyClone) in an incubator held at 37 °C with 5%
CO2. At 75% confluency, cells were transfected with 2.5 µg KDM4A F185A or Empty Vector with 5µg Thermo Turbofect (FERR0531). After 4 hours, the media was washed and 200 µM of 6A or equivalent volume of DMSO was added and left to incubate at 37 °C for 24 hours. Cells were then washed with 1X PBS (Corning) followed by trypsinization (Gibco TrypLE™ Express Enzyme). Collected cells were centrifuged at 3000xg for 3 minutes, followed by washing with 1X PBS and centrifuged for an additional 3000xg for 3 minutes. Histone proteins were extracted from the pellet as described by25 to ensure good-quality identification and quantification of single histone marks. Briefly, cell pellets were dissolved in 100 µL of cold 0.2 M H2SO4 and incubated for 2 hours rotating in a cold room (4 °C). Aliquots were then centrifuged at 3400xg for 5 minutes […]
at 4 °C and the supernatant was added to a fresh tube. 100% cold TCA was then added to a final volume of 33% volume/volume TCA/supernatant and left to incubate for 1 hour in a cold room (4 °C). Samples were then centrifuged at 3400xg for 5 min at 4 °C and the supernatant was discarded. The precipitate was then washed with cold acetone/0.1% HCl and centrifuged at 3400xg for 5 minutes at 4 °C. The supernatant was discarded, and the precipitate was washed with cold acetone and centrifuged at 3400xg for 5 minutes at 4 °C. The supernatant was discarded, and the pellet was dried using a vacuum centrifuge.
The pellet was dissolved in 50 mM ammonium bicarbonate, pH 8.0, and histones were subjected to derivatization using 5 µL of propionic anhydride and 14 µL of ammonium hydroxide (all Sigma Aldrich) to balance the pH at 8.0. The mixture was incubated for 15 min and the procedure was repeated. Histones were then digested with 1 µg of sequencing grade trypsin (Promega) diluted in 50mM ammonium bicarbonate (1:20, enzyme:sample) overnight at room temperature.
Derivatization reaction was repeated to derivatize peptide N-termini. The samples were dried in a […]
Sample desalting: Prior to mass spectrometry analysis, samples were desalted using a 96-well plate filter (Orochem) packed with 1 mg of Oasis HLB C-18 resin (Waters). Briefly, the samples were resuspended in 100 µl of 0.1% TFA and loaded onto the HLB resin, which was previously equilibrated using 100 µl of the same buffer. After washing with 100 µl of 0.1% TFA, the samples were eluted with a buffer containing 70 µl of 60% acetonitrile and 0.1% TFA and then dried in a […]
LC-MS/MS Acquisition and Analysis: Samples were resuspended in 10 µl of 0.1% TFA and loaded onto a Dionex RSLC […] (Thermo Scientific), coupled online with an Orbitrap Fusion Lumos (Thermo Scientific). Chromatographic separation was performed with a two-column system, consisting of a C-18 trap cartridge (300 µm ID, 5 mm length) and a picofrit analytical column (75 µm ID, 25 cm length) packed in-house with reversed-phase Repro-Sil Pur C18-AQ 3 µm resin. Peptides were separated using a 30 min gradient from 1-30% buffer B (buffer A: 0.1% formic acid, buffer B: 80% acetonitrile + 0.1% formic acid) at a flow rate of 300 nl/min.
The mass spectrometer was set to acquire spectra in a data-independent acquisition (DIA) mode.

CCCCCCCCOC(=O)C(=O)NC(CC(C)C)C(=O)O [6A, L-Leu octyl-ester NOG]
Relative abundance, H3_9_17 K9me1S10ph: 7.8% and 0.0004% | Relative abundance, H3_9_17 K9me1S10phK14ac: 0.0342% and 0.0031% | Relative abundance, H3_9_17 K9me2: 22.1% and 17.2% | Relative abundance, H3_9_17 K9me2K14ac: 19.6% and 31.3% | Relative abundance, H3_9_17 K9me2S10ph: 0.317% and 0.0091% | Relative abundance, H3_9_17 K9me2S10phK14ac: 0.125% and 0.1% | Relative abundance, H3_9_17 K9me3: 10.5% and 10.1% | Relative abundance, H3_9_17 K9me3K14ac: 4.9% and 8.1% | Relative abundance, H3_9_17 K9me3S10ph: 0.178% and 0.2% | Relative abundance, H3_9_17 K9me3S10phK14ac: 0.0363% and 0.177% | Relative abundance, H3_9_17 K14ac: 8.4% and 11.5% | Relative abundance, H3_9_17 S10ph: 0.0768% and 0.0083% | Relative abundance, H3_9_17 S10phK14ac: 0.0443% and 0.0008% | Relative abundance, H3_9_17 unmod: 9.8% and 11.8% | Relative abundance, H3_18_26 K18ac: 0.249% and 0.34% | Relative abundance, H3_18_26 K18acK23ac: 0.647% and 0.316% | Relative abundance, H3_18_26 K18me1: 0.0% and 0.0012% | Relative abundance, H3_18_26 K18me1K23me1: 0.0% | Relative abundance, H3_18_26 K23ac: 50.6% and 44.0% | Relative abundance, H3_18_26 K23me1: 0.0% and 0.0005% | Relative abundance, H3_18_26 unmod: 48.5% and 55.3% | Relative abundance, H3_27_40 K27ac: 0.0296% and 0.0% | Relative abundance, H3_27_40 K27me1: 3.2% and 3.4% | Relative abundance, H3_27_40 K27me1K36me1: 5.3% and 3.7% | Relative abundance, H3_27_40 K27me1K36me2: 8.3% and 9.8% | Relative abundance, H3_27_40 K27me1K36me3: 1.2% and 1.9% | Relative abundance, H3_27_40 K27me1S28ph: 0.0041% and 0.002% | Relative abundance, H3_27_40 K27me2: 15.4% and 12.9% | Relative abundance, H3_27_40 K27me2K36me1: 9.5% and 8.5% | Relative abundance, H3_27_40 K27me2K36me2: 22.1% and 30.2% | Relative abundance, H3_27_40 K27me2S28ph: 0.0281% and 0.0017% | Relative abundance, H3_27_40 K27me3: 11.7% and 6.9% | Relative abundance, H3_27_40 K27me3K36me1: 3.6% and 2.6% | Relative abundance, H3_27_40 K27me3K36me2: 3.5% and 4.6% | Relative abundance, H3_27_40 K27me3S28ph: 0.0216% and 0.0012% | Relative abundance, H3_27_40 K36me1: 1.9% and 1.7% | Relative abundance, H3_27_40 K36me2: 3.2% and 4.8% | Relative abundance, H3_27_40 K36me3: 5.9% and 4.4% | Relative abundance, H3_27_40 S28ph: 0.0007% and 0.1% | Relative abundance, H3_27_40 unmod: 5.0% and 4.6% | Relative abundance, H3_41_49 Y41ph: 0.001% and 0.173% | Relative abundance, H3_41_49 unmod: 100.0% and 99.8% | Relative abundance, H3_54_63 K56ac: 0.0% | Relative abundance, H3_54_63 K56me2: 0.0% | Relative abundance, H3_54_63 K56me3: 0.0% | Relative abundance, H3_73_83 K79ac: 0.0% | Relative abundance, H3_73_83 K79me3: 4.6% and 0.0% | Relative abundance, H4_4_17 K5ac: 1.3% and 2.1% | Relative abundance, H4_4_17 K5acK8ac: 0.3% and 1.0% | Relative abundance, H4_4_17 K5acK8acK12ac: 0.261% and 1.3% | Relative abundance, H4_4_17 K5acK8acK12acK16ac: 0.0284% and 2.6% | Relative abundance, H4_4_17 K5acK8acK16ac: 0.279% and 0.9% | Relative abundance, H4_4_17 K5acK12ac: 0.8% and 3.1% | Relative abundance, H4_4_17 K5acK12acK16ac: 0.471% and 3.1% | Relative abundance, H4_4_17 K5acK16ac: 0.7% and 2.5% | Relative abundance, H4_4_17 K8ac: 1.3% and 1.4% | Relative abundance, H4_4_17 K8acK12ac: 0.211% and 0.6% | Relative abundance, H4_4_17 K8acK12acK16ac: 1.2% and 4.4% | Relative abundance, H4_4_17 K8acK16ac: 1.5% and 3.9% | Relative abundance, H4_4_17 K12ac: 2.8% and 4.2% | Relative abundance, H4_4_17 K12acK16ac: 3.3% and 7.5% | Relative abundance, H4_4_17 K16ac: 24.2% and 24.4% | Relative abundance, H4_4_17 unmod: 61.3% and 37.2% | Relative abundance, H4_20_23 K20ac: 0.3% and 1.3% | Relative abundance, H4_20_23 K20me1: 48.4% and 36.1% | Relative abundance, H4_20_23 K20me3: 3.5% and 3.6% | Relative abundance, H4_20_23 unmod: 37.7% and 34.8% | Relative abundance, H4_24_35 unmod: 100.0% | Relative abundance, H4_40_45 K44ac: 0.0025% and 0.039% | Relative abundance, H4_40_45 unmod: 100.0% | Relative abundance, H4_79_92 unmod: 100.0% | Relative abundance, H33_27_40 K27ac: 0.0069% and 0.0% | Relative abundance, H33_27_40 K27me1: 3.6% and 2.5% | Relative abundance, H33_27_40 K27me1K36me1: 4.8% and 3.5% | Relative abundance, H33_27_40 K27me1K36me2: 11.0% and 11.1% | Relative abundance, H33_27_40 K27me1K36me3: 2.1% and 3.4% | Relative abundance, H33_27_40 K27me1S28ph: 0.0023% and 0.024%
